According to ChEMBL document CHEMBL5390248, “Design, synthesis and anticancer activity evaluation of 4-(3-1H-indazolyl)amino quinazoline derivatives as PAK4 inhibitors” (Bioorg Med Chem, 2023):

Tests used:
[1] = biological target: T1, Serine/threonine-protein kinase PAK 4 (Homo sapiens, UniProt O96013); assay: Inhibition of PAK4 (unknown origin) using lipid substrate at 100 nM incubated for 40 mins in presence of ATP by ADP-Glo plus luminescence kinase assay relative to control
Target sequence in this assay (O96013 whole entry, looked up): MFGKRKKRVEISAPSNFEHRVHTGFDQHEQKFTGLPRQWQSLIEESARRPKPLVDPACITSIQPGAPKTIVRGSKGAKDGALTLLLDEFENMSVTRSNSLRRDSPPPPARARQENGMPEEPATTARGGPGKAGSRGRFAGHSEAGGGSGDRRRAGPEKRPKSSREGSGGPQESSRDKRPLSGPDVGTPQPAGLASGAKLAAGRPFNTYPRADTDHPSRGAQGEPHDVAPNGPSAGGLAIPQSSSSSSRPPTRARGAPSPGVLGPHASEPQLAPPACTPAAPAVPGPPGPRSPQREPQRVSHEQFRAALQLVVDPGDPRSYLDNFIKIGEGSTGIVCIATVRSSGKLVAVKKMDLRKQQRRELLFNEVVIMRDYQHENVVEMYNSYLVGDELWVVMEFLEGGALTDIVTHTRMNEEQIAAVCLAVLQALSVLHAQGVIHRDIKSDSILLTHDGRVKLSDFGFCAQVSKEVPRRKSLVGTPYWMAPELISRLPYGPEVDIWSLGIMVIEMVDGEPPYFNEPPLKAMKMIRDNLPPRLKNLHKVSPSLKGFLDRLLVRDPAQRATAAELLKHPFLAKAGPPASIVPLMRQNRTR

[2] = biological target: T1, Serine/threonine-protein kinase PAK 4; assay: Inhibition of PAK4 (unknown origin) using lipid substrate incubated for 40 mins in presence of ATP by ADP-Glo plus luminescence kinase assay
Target sequence in this assay (O96013 whole entry): as the sequence (O96013 whole entry, looked up) above

[3] = system: A549; assay: cells; settings: Homo sapiens, A549, 24 h
[4] = Antiproliferative activity against HEK293T cells assessed as inhibition of cell growth incubated for 24 hrs by CCK8 assay; format: toxicity, cell-based, HEK-293T; settings: human
[5] = system: A549; assay: cells; settings: Homo sapiens, A549, 72 h
[6] = system: A549; assay: Induction of apoptosis in human A549 cells assessed as early apoptotic cells at 1 uM measured after 24 hrs by AnnexinV-FITC/propidium iodide staining based flow cytometry method (reference value: 0.049 %); format: functional
[7] = system: A549; assay: Induction of apoptosis in human A549 cells assessed as late apoptotic cells at 1 uM measured after 24 hrs by AnnexinV-FITC/propidium iodide staining based flow cytometry method (reference value: 0.12 %); format: functional
[8] = system: A549; assay: Induction of cell cycle arrest in human A549 cells assessed as accumulation of S phase cells at 1 uM measured for 24 hrs by PI staining based flow cytometric analysis (reference value: 35.3 % ); format: functional
[9] = system: A549; assay: Induction of apoptosis in human A549 cells assessed as early apoptotic cells at 0.5 uM measured after 24 hrs by AnnexinV-FITC/propidium iodide staining based flow cytometry method (reference value: 0.049 %); format: functional
[10] = system: A549; assay: Induction of cell cycle arrest in human A549 cells assessed as accumulation of G1 phase cells at 0.5 uM measured for 24 hrs by PI staining based flow cytometric analysis (reference value: 27.5 % ); format: functional
[11] = system: A549; assay: Induction of apoptosis in human A549 cells assessed as viable cells at 1 uM measured after 24 hrs by AnnexinV-FITC/propidium iodide staining based flow cytometry method (reference value: 98.7 %); format: functional; settings: read-out: Activity
[12] = system: A549; assay: Induction of apoptosis in human A549 cells assessed as necrotic cells at 3 uM measured after 24 hrs by AnnexinV-FITC/propidium iodide staining based flow cytometry method (reference value: 1.11 %); format: functional
[13] = system: A549; assay: Induction of cell cycle arrest in human A549 cells assessed as accumulation of S phase cells at 3 uM measured for 24 hrs by PI staining based flow cytometric analysis (reference value: 35.3 % ); format: functional
[14] = system: A549; assay: Induction of apoptosis in human A549 cells assessed as late apoptotic cells at 0.5 uM measured after 24 hrs by AnnexinV-FITC/propidium iodide staining based flow cytometry method (reference value: 0.12 %); format: functional
[15] = system: A549; assay: Induction of apoptosis in human A549 cells assessed as necrotic cells at 0.5 uM measured after 24 hrs by AnnexinV-FITC/propidium iodide staining based flow cytometry method (reference value: 1.11 %); format: functional
[16] = system: A549; assay: Induction of apoptosis in human A549 cells assessed as viable cells at 0.5 uM measured after 24 hrs by AnnexinV FITC/propidium iodide staining based flow cytometry method (reference value: 98.7 %); format: functional; settings: read-out: Activity
[17] = system: A549; assay: Induction of cell cycle arrest in human A549 cells assessed as accumulation of G2 phase cells at 0.5 uM measured for 24 hrs by PI staining based flow cytometric analysis (reference value: 32.4 % ); format: functional
[18] = system: A549; assay: Induction of apoptosis in human A549 cells assessed as necrotic cells at 1 uM measured after 24 hrs by AnnexinV-FITC/propidium iodide staining based flow cytometry method (reference value: 1.11 %); format: functional
[19] = system: A549; assay: Induction of cell cycle arrest in human A549 cells assessed as accumulation of G1 phase cells at 1 uM measured for 24 hrs by PI staining based flow cytometric analysis (reference value: 27.5 % ); format: functional
[20] = system: A549; assay: Induction of cell cycle arrest in human A549 cells assessed as accumulation of G2 phase cells at 3 uM measured for 24 hrs by PI staining based flow cytometric analysis (reference value: 32.4 % ); format: functional
[21] = system: A549; assay: Induction of cell cycle arrest in human A549 cells assessed as accumulation of G2 phase cells at 1 uM measured for 24 hrs by PI staining based flow cytometric analysis (reference value: 32.4 % ); format: functional
[22] = system: A549; assay: Induction of apoptosis in human A549 cells assessed as viable cells at 3 uM measured after 24 hrs by AnnexinV-FITC/propidium iodide staining based flow cytometry method (reference value: 98.7 %); format: functional; settings: read-out: Activity
[23] = system: A549; assay: Induction of cell cycle arrest in human A549 cells assessed as accumulation of G1 phase cells at 3 uM measured for 24 hrs by PI staining based flow cytometric analysis (reference value: 27.5 % ); format: functional
[24] = system: A549; assay: Induction of cell cycle arrest in human A549 cells assessed as accumulation of S phase cells at 0.5 uM measured for 24 hrs by PI staining based flow cytometric analysis (reference value: 35.3 % ); format: functional
[25] = system: A549; assay: Induction of apoptosis in human A549 cells assessed as early apoptotic cells at 3 uM measured after 24 hrs by AnnexinV-FITC/propidium iodide staining based flow cytometry method (reference value: 0.049 %); format: functional
[26] = system: A549; assay: Induction of apoptosis in human A549 cells assessed as late apoptotic cells at 3 uM measured after 24 hrs by AnnexinV-FITC/propidium iodide staining based flow cytometry method (reference value: 0.12 %); format: functional
[27] = system: A549; assay: Antiproliferative activity against human A549 cells assessed as inhibition of cell growth incubated for 72 hrs by CCK8 assay; format: functional, cell-based; settings: A549, 72 h

C[C@H]1CN(C(=O)c2nc(Nc3n[nH]c4ccccc34)c3cc(Cl)ccc3n2)CCN1
inhibition [1]: 3%

O=C(c1nc(Nc2n[nH]c3ccccc23)c2cc(Cl)ccc2n1)N1CCNCC1
inhibition [1]: 4%

O=C(NCC1CNC1)c1nc(Nc2n[nH]c3ccccc23)c2cc(Cl)ccc2n1
inhibition [1]: 15%

CC(C)[C@H](N)CNC(=O)c1nc(Nc2n[nH]c3ccccc23)c2cc(Cl)ccc2n1
inhibition [1]: 76%
IC50 [2]: 16 nM

CN(C)CCCNC(=O)c1nc(Nc2n[nH]c3ccccc23)c2cc(Cl)ccc2n1
inhibition [1]: 11%

N[C@H](CNC(=O)c1nc(Nc2n[nH]c3ccccc23)c2cc(Cl)ccc2n1)Cc1ccccc1
inhibition [1]: 77%
IC50 [2]: 9 nM
IC50 [3]: 2280 nM
IC50 at 24 h [4]: > 10000 nM

C[C@@H](N)CNC(=O)c1nc(Nc2n[nH]c3ccccc23)c2cc(Cl)ccc2n1
inhibition [1]: 35%

N[C@@H](CNC(=O)c1nc(Nc2n[nH]c3ccccc23)c2cc(Cl)ccc2n1)Cc1ccccc1
inhibition [1]: 75%
IC50 [2]: 11 nM

O=C(NC1CNC1)c1nc(Nc2n[nH]c3ccccc23)c2cc(Cl)ccc2n1
inhibition [1]: 10%

N[C@@H](CNC(=O)c1nc(Nc2n[nH]c3ccccc23)c2cc(Cl)ccc2n1)c1ccccc1
inhibition [1]: 78%
IC50 [2]: 13 nM
IC50 [3]: 1900 nM
IC50 at 24 h [4]: > 10000 nM

C[C@H](N)CNC(=O)c1nc(Nc2n[nH]c3ccccc23)c2cc(Cl)ccc2n1
inhibition [1]: 25%

Cc1nc(Nc2n[nH]c3c2CN(C(=O)N[C@H](CN(C)C)c2ccccc2)C3(C)C)c2sccc2n1 [PF-03758309]
IC50 [5]: 20 nM
inhibition [1]: 81%
IC50 [3]: 670 nM
IC50 at 24 h [4]: > 10000 nM

C[C@@H]1CN(C(=O)c2nc(Nc3n[nH]c4ccccc34)c3cc(Cl)ccc3n2)CCN1
inhibition [1]: 10%

CNCCNC(=O)c1nc(Nc2n[nH]c3ccccc23)c2cc(Cl)ccc2n1
inhibition [1]: 3%

O=C(NCCO)c1nc(Nc2n[nH]c3ccccc23)c2cc(Cl)ccc2n1
inhibition [1]: 3%

N[C@H](CNC(=O)c1nc(Nc2n[nH]c3ccccc23)c2cc(Cl)ccc2n1)c1ccccc1
inhibition [1]: 70%
IC50 [2]: 24 nM

CN(C)CCNC(=O)c1nc(Nc2n[nH]c3ccccc23)c2cc(Cl)ccc2n1
inhibition [1]: 4%

CC(C)[C@@H](N)CNC(=O)c1nc(Nc2n[nH]c3ccccc23)c2cc(Cl)ccc2n1
Activity [6]: 27%
Activity [7]: 4.83%
Activity [8]: 31.2%
inhibition [1]: 73%
Activity [9]: 15.1%
Activity [10]: 34.1%
viability at 1 µM [11]: 64.2%
Activity [12]: 4.6%
Activity [13]: 26%
Activity [14]: 1.1%
Activity [15]: 2.2%
viability at 0.5 µM [16]: 81.6%
IC50 [2]: 10 nM
Activity [17]: 28.9%
Activity [18]: 3.96%
Activity [19]: 45.2%
Activity [20]: 21.9%
Activity [21]: 22.7%
viability at 3 µM [22]: 50.5%
Activity [23]: 50.9%
Activity [24]: 35%
Activity [25]: 41%
IC50 [3]: 610 nM
Activity [26]: 3.97%
IC50 at 24 h [4]: > 10000 nM

CNC[C@H](C)NC(=O)c1nc(Nc2n[nH]c3ccccc23)c2cc(Cl)ccc2n1
inhibition [1]: 3%

NCCNC(=O)c1nc(Nc2n[nH]c3ccccc23)c2cc(Cl)ccc2n1
inhibition [1]: 2%

Cc1cc(Nc2cc(Cc3ccccc3)nc(NC3CCNCC3)n2)n[nH]1
IC50 [27]: 2530 nM

CNC[C@@H](C)NC(=O)c1nc(Nc2n[nH]c3ccccc23)c2cc(Cl)ccc2n1
inhibition [1]: 27%
